Literature values in patent US7786119B2, “Drug conjugates of ion channel modulating compounds” (Cardiome Pharma Corp., priority 2004, dated 2010).

What was measured:
[1] = optically pure d-sotalol; SWORD study

| SMILES | increased mortality compared to placebo [1] [%] | risk of ventricular proarrhythmia (estimated) [%] | patients requiring cardioversion for refractory ventricular arrhythmias (in vivo) [%] |
| --- | --- | --- | --- |
| CC(C)NC[C@@H](O)c1ccc(NS(C)(=O)=O)cc1 [d-sotalol] | 65 | – | – |
| CCCCCCCN(CC)CCCC(O)c1ccc(NS(C)(=O)=O)cc1 (stereo not drawn) [ibutilide] | – | ~4.4 | ~1.7 |
